pIC50, pKi: −log10 of the molar value.
Columns and labels:
mTORC2 = mTORC2 (Homo sapiens, UniProt P42345); assay: Inhibition of mTORC2 in human A2058 cells assessed as reduction in PKB phosphorylation at S473 residue incubated for 1 hr by Western blot analysis; format: cell-based
mTORC1 = mTORC1 (Homo sapiens, UniProt P42345); assay: Inhibition of mTORC1 in human A2058 cells assessed as reduction in ribosomal protein S6 phosphorylation at Ser235/236 residues incubated for 1 hr by Western blot analysis; format: cell-based
[1] = target: Phosphatidylinositol 4,5-bisphosphate 3-kinase catalytic subunit alpha isoform (Homo sapiens, UniProt P42336); assay: Displacement of alexa fluor 647-labeled kinase tracer 314 from recombinant N-terminal His6-tagged p110alpha (unknown origin) by TR-FRET assay
Sequence of Phosphatidylinositol 4,5-bisphosphate 3-kinase catalytic subunit alpha isoform (P42336 whole entry, the tested form may be a part, canonical isoform): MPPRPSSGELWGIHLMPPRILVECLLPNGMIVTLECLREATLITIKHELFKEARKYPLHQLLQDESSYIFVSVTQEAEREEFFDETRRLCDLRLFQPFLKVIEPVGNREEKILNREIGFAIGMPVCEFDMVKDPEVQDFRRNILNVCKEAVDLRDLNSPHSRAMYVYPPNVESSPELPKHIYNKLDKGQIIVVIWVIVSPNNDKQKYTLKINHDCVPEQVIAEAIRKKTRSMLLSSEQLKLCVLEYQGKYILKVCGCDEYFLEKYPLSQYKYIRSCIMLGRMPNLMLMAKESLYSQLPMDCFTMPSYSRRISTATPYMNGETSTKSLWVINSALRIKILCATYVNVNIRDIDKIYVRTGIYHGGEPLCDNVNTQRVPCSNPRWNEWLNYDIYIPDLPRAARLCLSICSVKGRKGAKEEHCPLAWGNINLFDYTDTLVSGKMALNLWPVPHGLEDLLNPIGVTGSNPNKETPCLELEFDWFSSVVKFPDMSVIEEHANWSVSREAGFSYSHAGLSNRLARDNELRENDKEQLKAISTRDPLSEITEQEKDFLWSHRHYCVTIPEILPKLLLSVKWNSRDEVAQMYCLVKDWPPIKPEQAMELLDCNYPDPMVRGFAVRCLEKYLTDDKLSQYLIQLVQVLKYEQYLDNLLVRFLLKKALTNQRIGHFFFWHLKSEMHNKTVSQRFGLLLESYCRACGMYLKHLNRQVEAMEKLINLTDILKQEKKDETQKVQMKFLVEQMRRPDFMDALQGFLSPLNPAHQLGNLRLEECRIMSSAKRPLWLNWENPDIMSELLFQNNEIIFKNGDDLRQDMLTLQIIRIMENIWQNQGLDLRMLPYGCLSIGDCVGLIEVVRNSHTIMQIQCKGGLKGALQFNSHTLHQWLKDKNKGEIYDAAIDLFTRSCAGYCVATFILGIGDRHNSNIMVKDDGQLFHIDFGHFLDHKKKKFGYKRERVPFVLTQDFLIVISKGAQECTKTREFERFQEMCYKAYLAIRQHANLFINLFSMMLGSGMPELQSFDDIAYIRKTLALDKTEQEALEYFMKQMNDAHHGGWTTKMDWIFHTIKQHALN

[2] = target: Serine/threonine-protein kinase mTOR (Homo sapiens, UniProt P42345); assay: Displacement of alexa fluor 647-labeled kinase tracer 314 from recombinant human N-terminal GST-fused mTOR (1360 to 2549 residues) expressed in baculovirus expression system by TR-FRET assay

In the case of Nc1ncc(-c2nc(N3CCOCC3)nc(N3C[C@H]4CC[C@@H](C3)O4)n2)c(C(F)F)n1, the pIC50 (mTORC2) was 7.08, the pIC50 (mTORC1) was 6.86 and the pKi [1] was 8.36. The pKi [2] was 7.54.
With C[C@@H]1COCCN1c1nc(-c2cnc(N)nc2C(F)F)nc(N2CCOCC2)n1 the pIC50 (mTORC2) was 7.19, the pIC50 (mTORC1) was 6.94 and the pKi [1] was 8.57. For the same molecule, the pKi [2] was 7.68.
